Reference: patent US6514951B1, “Pour-on formulations effective for the control of internal and external parasites of homothermic animals” (American Cyanamid Company, priority 1989, dated 2003)

System: gastrointestinal nematodes
Assay: Influence of simulated rain on reduction of nematode egg output in feces of cattle after pour-on
Format: in vivo, Cooperia, Haemonchus, Ostertagia and Trichostrongylus
Details: at all times posttreatment regardless of exposure to simulated rainfall
From the text: The objective of this study is to determine the potential effect of rainfall on the efficacy of a pour-on formulation of 23-(O-methyloxime)-LL-F28249α (0.5% w/v) against gastrointestinal nematodes. Formulation 10 reported in Example 2, above, is employed for the study.
Forty-eight mixed beef breed heifers are ranked according to the average of the day −3 and day −2 fecal nematode egg counts and randomly assigned to the following groups of 6 animals each:
All cattle treated with 23-(O-methyloxime)-LL-F28249α pour-on are treated with 0.5 mg 23-(O-methyloxime)-LL-F28249α per kg of body weight. All animals exposed to simulated rain are sprayed with the equivalent of 1 inch of water for 30 minutes.
Following treatment, cattle are housed in outdoor pens which are partially covered by a three sided shed. Cattle remain outdoors during the entire posttreatment period. However, they are confined to a covered portion of the pen when it is raining or rainfall is imminent. […]
The simulated rainfall apparatus used in this trial consists of a 12 feet×12 feet pen with right angle directional spray nozzles in each corner. It is calculated that 89.75 gallons of water applied to this size pen are the equivalent of 1 inch of rain. […]
Fecal samples are taken from all animals on days 7, 14 and 21 posttreatment to evaluate nematode egg counts. The values are expressed as number of eggs per 1 g of feces.

CO/N=C1\C[C@]2(C[C@@H]3CC(C/C=C(\C)C[C@@H](C)/C=C/C=C4\CO[C@@H]5[C@H](O)C(C)=C[C@@H](C(=O)O3)[C@]45O)O2)O[C@H](/C(C)=C/C(C)C)[C@H]1C [23-(O-methyloxime)-LL-F28249α]
nematode egg counts (in words): significantly reduces
